Assay results from PMC4589779 (Scientific Reports, 2015).
Like-named read-outs stand apart in the source and are kept apart here.

Assays:
[1] = molecular target: T1, FXR-LBD protein (residues 244–472) (Homo sapiens, UniProt Q96RI1)
T1 sequence (Q96RI1 244-472 isoform Q96RI1-2): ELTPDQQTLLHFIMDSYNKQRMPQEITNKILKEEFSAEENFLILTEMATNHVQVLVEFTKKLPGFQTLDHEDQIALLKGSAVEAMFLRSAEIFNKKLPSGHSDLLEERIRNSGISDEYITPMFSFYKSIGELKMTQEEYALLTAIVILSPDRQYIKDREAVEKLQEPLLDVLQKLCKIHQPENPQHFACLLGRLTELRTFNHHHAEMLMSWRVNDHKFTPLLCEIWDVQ
Description: The thermal shift method is widely used to assess ligand binding. A thermal shift assay usually measures the melting temperature of a protein with or without a ligand by monitoring a fluorescent dye. In an aqueous solution of folded protein the dye signal is low due to quenching of the dye fluorescence in water, but with increasing temperature the protein unfolds and exposes its hydrophobic core regions. The fluorescent dye is then bound to the hydrophobic surfaces and fluorescence increases.
Thermal Shift assay was performed in clear 96-well plates (Invitrogen) using SYPRO Orange (Invitrogen Darmstadt, Germany) as dye. […] Temperature-dependent fluorescence increase reporting protein denaturation was measured in duplicates in an ICycler (Bio-Rad) from 20 to 90 °C in steps of 0.2 °C per minute at […] and 570 nm emission wavelength. Each experiment was independently repeated four times. The first derivative of the melting curves was calculated using the Graph Pad Prism 5 software.

[2] = molecular target: T2, fusion receptor of the FXR ligand binding domain and a Gal4 DNA binding domain (Homo sapiens, UniProt Q96RI1)
T2 sequence (Q96RI1 262-486 limits assumed): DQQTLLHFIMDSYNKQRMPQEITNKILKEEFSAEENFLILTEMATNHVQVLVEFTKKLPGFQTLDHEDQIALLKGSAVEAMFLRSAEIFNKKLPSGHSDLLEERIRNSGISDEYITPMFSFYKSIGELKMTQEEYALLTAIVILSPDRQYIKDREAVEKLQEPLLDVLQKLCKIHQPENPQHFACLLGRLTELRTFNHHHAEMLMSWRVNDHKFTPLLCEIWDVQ
Method: Luminescence was measured with an Infinite M200 luminometer (Tecan Deutschland GmbH). […] Fold activation was obtained by dividing the mean RLU of a test compound at a respective concentration by the mean RLU of untreated control.

[3] = molecular target: T3, FXR (Homo sapiens, UniProt Q96RI1); assay: Full-length FXR reporter gene assay in HeLa cells (BSEP promotor, RXRα); assay type: cell-based
T3 construct: is based on the complete FXR receptor (CMV promoter); expressed in transfected cells; host or cells: HeLa
T3 sequence (Q96RI1 1-486): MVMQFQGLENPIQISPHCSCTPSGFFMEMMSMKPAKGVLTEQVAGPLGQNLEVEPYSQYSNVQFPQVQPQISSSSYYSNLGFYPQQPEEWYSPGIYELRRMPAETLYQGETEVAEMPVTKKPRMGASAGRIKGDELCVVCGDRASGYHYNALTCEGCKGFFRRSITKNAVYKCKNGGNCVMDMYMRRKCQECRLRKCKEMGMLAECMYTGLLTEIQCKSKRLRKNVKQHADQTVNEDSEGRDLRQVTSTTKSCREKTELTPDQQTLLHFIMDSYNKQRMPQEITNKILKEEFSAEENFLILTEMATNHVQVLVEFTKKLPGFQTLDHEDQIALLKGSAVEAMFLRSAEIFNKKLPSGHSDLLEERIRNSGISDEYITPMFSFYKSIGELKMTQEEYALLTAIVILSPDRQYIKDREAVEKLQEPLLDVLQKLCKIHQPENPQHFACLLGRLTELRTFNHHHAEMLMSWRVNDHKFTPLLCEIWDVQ
T3 sequence (P19793 1-462 partner): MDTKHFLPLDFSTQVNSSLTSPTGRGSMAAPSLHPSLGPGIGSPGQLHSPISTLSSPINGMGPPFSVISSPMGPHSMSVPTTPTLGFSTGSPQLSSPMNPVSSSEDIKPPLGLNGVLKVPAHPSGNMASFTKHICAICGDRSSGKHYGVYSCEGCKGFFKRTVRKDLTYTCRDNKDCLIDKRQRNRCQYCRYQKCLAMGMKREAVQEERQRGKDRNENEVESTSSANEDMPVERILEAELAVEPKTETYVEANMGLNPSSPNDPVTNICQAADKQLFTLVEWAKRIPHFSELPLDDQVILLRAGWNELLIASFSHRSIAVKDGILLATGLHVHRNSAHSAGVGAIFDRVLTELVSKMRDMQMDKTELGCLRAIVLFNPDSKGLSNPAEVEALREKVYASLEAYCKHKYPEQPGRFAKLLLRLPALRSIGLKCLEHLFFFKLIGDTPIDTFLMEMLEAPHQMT
Method: Luminescence was measured with a Tecan Infinite M200 luminometer (Tecan Deutschland GmbH, Crailsheim, Germany). […] Fold activation was obtained by dividing the mean RLU of the tested compound at a respective concentration by the mean RLU of untreated control.

[4] = Cell proliferation assay (WST-1) in HepG2 cells; details: human, HepG2 cells
Method: (§1) WST-1 assay (Roche Diagnostics International AG, Rotkreuz, Switzerland) was performed according to manufacturer’s protocol. In brief, HepG2 cells were seeded in DMEM high glucose, supplemented with sodium pyruvate (1 mM), penicillin (100 U/mL), streptomycin (100 μg/mL) and 10% FCS in 96-well plates (3 · 10^4 cells/well). HEK293T cells were seeded in DMEM high glucose, supplemented with sodium pyruvate (1 mM), penicillin (100 U/mL), streptomycin (100 μg/mL) and 10% FCS in 96-well plates (2,5 · 10^4 cells/well). After 24 h, medium was changed to DMEM high glucose, supplemented with penicillin (100 U/mL), streptomycin (100 μg/mL) and 1% charcoal stripped FCS and cells were incubated with varying concentrations of test compounds, Revlotron (100 μM) as positive control and DMEM/0,1% DMSO as negative control. […] […] After 45 min incubation, absorption (450 nm/reference: 620 nm) was determined with a Tecan Infinite M200 luminometer (Tecan Deutschland GmbH). Each experiment was repeated at least four times in triplicates.

[5] = system: HepG2 cells; assay: Cell proliferation assay (WST-1) in HepG2 cells; details: for effect on cell viability: 6 hours, 25 μM NSAID and CDCA (50 μM); for concentrations that are considerably toxic: summing up of the WST-1 toxicity data (HepG2 and HEK293T); for no toxic effect on cell viability up to (concentration): 6 hours incubation, alone or in combination with CDCA (50 μM)
Method: as §1

[6] = system: HEK293T cells; assay: Cell proliferation assay (WST-1) in HEK293T cells; assay type: cell-based; details: for anti-proliferative effect in combination with CDCA: 24 h, NSAIDs 5, 25, 50 μM combined with CDCA (50 μM); for toxicity compared with HepG2 cells: 48 h
Method: as §1

[7] = system: bile salt export protein (BSEP) mRNA
Method: (§2) Quantification of the expression of FXR target genes in non-transfected cells offers the least artificial way to characterize the activity of a FXR ligand in vitro. […] As investigated genes we selected the direct FXR target genes bile salt export protein (BSEP) and small hetero-dimer partner (SHP) which allows a specific conclusion whether a FXR-dependent effect is present. […] We then quantified the mRNA of FXR target genes BSEP and SHP by qRT-PCR.
(§3) HepG2 cells were seeded in DMEM high glucose, supplemented with 10% FCS, SP (1 mM), penicillin (100 U/mL) and streptomycin (100 μg/mL) at 37 °C and 5% CO2 in 6-well plates (2 · 10^6 per well). 24 h after seeding, medium was changed to MEM, supplemented with 1% charcoal-stripped FCS, penicillin (100 U/mL), streptomycin (100 μg/mL) and L-glutamine (2 mM). After additional 24 h, medium was changed again to MEM, now additionally containing 0.1% DMSO and the respective test compounds or 0.1% DMSO alone as untreated control. Cells were incubated with the test compounds for 6 h, harvested, washed with cold phosphate buffered saline (PBS) and then directly used for RNA extraction.
Total RNA was extracted from HepG2 cells by the Total RNA Mini Kit (R6834-02, Omega Bio-Tek, Inc., Norcross, GA, USA). RNA was reverse-transcribed into cDNA using the High-Capacity cDNA Reverse Transcription Kit (4368814, Thermo Fischer Scientific, Inc., Waltham, MA, USA) with 2 μg RNA according to the manufacturer’s protocol.
FXR target gene expression was evaluated by quantitative PCR analysis with a StepOnePlusTM System (Life Technologies) using PowerSYBRGreen (Life Technologies; 12.5 μL per well) and the following primers[17] (300 nM each): SHP: 5′-[…] (forward) and 5′-[…] (reverse); BSEP: 5′-[…] (forward) and 5′-[…] (reverse). Results were normalized to GAPDH Ct values. Sequences of the GAPDH primers were as follows: 5′-[…] (forward) and 5′- […] (reverse). Each sample was set up in duplicates and repeated in at least four independent experiments. The expression was quantified by the comparative ΔΔCt method.

[8] = system: small hetero-dimer partner (SHP) mRNA; assay: FXR target gene quantification by qRT-PCR in HepG2 cells: SHP; assay type: cell-based
Method: as §2
as §3, with “extraction. […]” for “extraction.”
FXR target gene expression was evaluated by quantitative PCR analysis with a StepOnePlusTM System (Life Technologies) using PowerSYBRGreen (Life Technologies; 12.5 μL per well) and the following primers[17] […] The expression was quantified by the comparative ΔΔCt method.

[9] = system: CYP7A1 mRNA; design: method as in PMID 25631039; details: HepG2 cells, with 50 μM CDCA; cited from earlier work
[10] = 10 or 30 μM in competition with GW4064 (3 μM), OCA (3 μM) and CDCA (20 μM)

With `CC(C)c1onc(-c2c(Cl)cccc2Cl)c1COc1ccc(/C=C/c2cccc(C(=O)O)c2)c(Cl)c1` [GW4064] the “concentrations that robustly stabilize the FXR-LBD” value ([1]; 5 μM FXR-LBD, ratio to protein ≥20:1) was ≥ 100 µM.
In the case of `O=C(O)Cc1ccccc1Nc1c(Cl)cccc1Cl` [diclofenac, diclofenac sodium], the “activity of the control gene (renilla luciferase)” value [2] is reported as “toxicity driven decrease”, the agonistic activity ([2]; 10 or 30 μM alone) is reported as “None” and the competitive antagonistic activity [2, 10] is reported as “None”. For the same molecule, the agonistic activity ([3]; 10 or 30 μM alone) was “None”, the competitive antagonistic activity [3, 10] was “None” and the viability at 6 h, 30 μM [4] was 85 ± 2%. The viability at 6 h, 50 μM [4] was 75 ± 2%, the “effect on cell viability” value ([5]; HepG2 cells) was “did not affect cell viability” and the “concentrations with anti-proliferative activity / slight toxicity” value ([5]; HepG2 cells, 48 h) was ≥ 10 µM. For the same molecule, the “concentrations that are considerably toxic” value [5] was ≥ 30 µM, the “anti-proliferative effect in combination with CDCA” value (shortened to “anti-proliferative effect”) [6] was “considerable anti-proliferative effects” and the “toxicity compared with HepG2 cells” value [6] was “even higher toxicity”. For the same molecule, the “effect on BSEP expression” value [7] was “did not affect the expression”, the “antagonistic effect on SHP expression” value ([8]; 25 μM and 50 μM in competition with CDCA (50 μM), 6 h) was “did not observe any antagonistic effect” and the “effect on SHP expression” value ([8]; 50 μM alone, 6 h incubation) was “did not affect the expression”. For the same molecule, the “stabilization of the FXR-LBD” value ([1]; 500 μM alone, ratio to protein 100:1) was “did not stabilize the FXR-LBD” and the “antagonism of the stabilization of the FXR-LBD by GW4064” value ([1]; 500 μM in competition with GW4064 (100 μM, ratio 20:1)) was “did not antagonize the stabilization”.
In the case of `CC(C)Cc1ccc(C(C)C(=O)O)cc1` (centres unmarked) [ibuprofen], the “no toxic effect on cell viability up to (concentration)” value ([5]; HepG2 cells) is reported as “up to 100 μM”, the “effect on cell viability” value ([5]; HepG2 cells) is reported as “did not affect cell viability” and the “no toxicity up to (concentration)” value ([5]; HepG2 cells, 48 h) is reported as “up to 50 μM”. For the same molecule, the “anti-proliferative effect” value [6] was “considerable anti-proliferative effects” and the “induction of CYP7A1 expression (increase in mRNA levels)” value [9] was 1.7 fold.
In the case of `COc1ccc2c(c1)c(CC(=O)O)c(C)n2C(=O)c1ccc(Cl)cc1` [indometacin], the “no toxic effect on cell viability up to (concentration)” value ([5]; HepG2 cells) is reported as “up to 50 μM”, the “effect on cell viability” value ([5]; HepG2 cells) is reported as “did not affect cell viability” and the “concentrations with anti-proliferative activity / slight toxicity” value ([5]; human, 48 h) is reported as ≥ 10 µM. The “concentrations that are considerably toxic” value [5] was ≥ 30 µM, the “anti-proliferative effect” value [6] was “considerable anti-proliferative effects” and the “toxicity compared with HepG2 cells” value [6] was “even higher toxicity”. The “antagonistic effect on BSEP expression” value ([7]; HepG2 cells, 25 μM and 50 μM in competition with CDCA (50 μM), 6 h) was “did not observe any antagonistic effect”, the “effect on BSEP expression” value ([7]; HepG2 cells, 50 μM alone, 6 h incubation) was “did not affect the expression” and the “induction of CYP7A1 expression (increase in mRNA levels)” value [9] was 9 fold.
